Reference: ChEMBL document CHEMBL1287710, “A novel small-molecule inhibitor of IL-6 signalling” (Bioorg Med Chem Lett, 2010)
The source made the active and inactive calls. The rule behind the calls is not given here.

Tests used:
[1] = molecular target: T1, Signal transducer and activator of transcription 1-alpha/beta (Homo sapiens) (UniProt P42224); assay: Induction of STAT1 phosphorylation in human HeLa cells at 30 to 100 uM by Western blot analysis; type: cell-based
T1 sequence (whole entry): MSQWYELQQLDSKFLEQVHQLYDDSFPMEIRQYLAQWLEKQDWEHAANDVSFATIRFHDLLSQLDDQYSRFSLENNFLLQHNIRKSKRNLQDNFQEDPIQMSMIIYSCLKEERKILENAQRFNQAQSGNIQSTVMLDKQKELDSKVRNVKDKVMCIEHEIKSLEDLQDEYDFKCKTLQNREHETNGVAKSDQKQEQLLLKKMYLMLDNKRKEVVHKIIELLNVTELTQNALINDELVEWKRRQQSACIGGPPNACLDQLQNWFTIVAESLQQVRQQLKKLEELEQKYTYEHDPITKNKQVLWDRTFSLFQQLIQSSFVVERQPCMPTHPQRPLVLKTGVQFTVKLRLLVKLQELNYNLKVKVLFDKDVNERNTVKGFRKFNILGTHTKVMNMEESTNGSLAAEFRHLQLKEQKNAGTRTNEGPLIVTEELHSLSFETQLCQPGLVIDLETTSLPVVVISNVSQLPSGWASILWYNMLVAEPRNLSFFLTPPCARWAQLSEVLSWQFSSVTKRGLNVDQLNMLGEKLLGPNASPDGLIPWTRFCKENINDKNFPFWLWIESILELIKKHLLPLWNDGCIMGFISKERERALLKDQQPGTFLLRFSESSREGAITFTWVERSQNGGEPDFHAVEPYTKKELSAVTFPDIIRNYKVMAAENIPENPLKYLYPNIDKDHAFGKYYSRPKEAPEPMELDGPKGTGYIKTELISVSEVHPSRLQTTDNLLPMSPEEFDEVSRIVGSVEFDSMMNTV

[2] = molecular target: Signal transducer and activator of transcription 3 (Homo sapiens) (UniProt P40763); assay: Inhibition of STAT3 in human HeLa cells at 5 to 100 uM by luciferase reporter assay; type: cell-based
Chain of Signal transducer and activator of transcription 3 (Homo sapiens) (P40763 whole entry): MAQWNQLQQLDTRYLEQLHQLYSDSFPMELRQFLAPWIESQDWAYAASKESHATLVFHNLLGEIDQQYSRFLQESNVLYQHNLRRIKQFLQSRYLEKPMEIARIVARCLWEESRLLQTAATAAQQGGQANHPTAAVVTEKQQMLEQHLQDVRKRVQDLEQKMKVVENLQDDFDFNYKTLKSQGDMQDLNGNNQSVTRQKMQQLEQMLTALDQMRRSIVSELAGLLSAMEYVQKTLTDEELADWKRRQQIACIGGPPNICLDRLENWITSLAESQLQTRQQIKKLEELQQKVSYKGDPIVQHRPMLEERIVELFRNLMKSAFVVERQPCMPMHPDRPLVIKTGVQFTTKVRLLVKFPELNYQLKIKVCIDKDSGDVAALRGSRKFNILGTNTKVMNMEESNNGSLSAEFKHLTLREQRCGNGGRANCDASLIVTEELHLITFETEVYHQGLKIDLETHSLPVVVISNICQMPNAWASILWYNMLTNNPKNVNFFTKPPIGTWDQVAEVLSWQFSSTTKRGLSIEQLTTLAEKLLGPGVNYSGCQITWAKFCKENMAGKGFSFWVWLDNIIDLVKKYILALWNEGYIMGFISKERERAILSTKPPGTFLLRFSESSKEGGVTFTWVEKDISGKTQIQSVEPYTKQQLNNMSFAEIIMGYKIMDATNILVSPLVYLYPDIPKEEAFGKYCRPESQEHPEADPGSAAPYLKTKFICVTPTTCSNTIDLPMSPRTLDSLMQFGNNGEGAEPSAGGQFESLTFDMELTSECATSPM

[3] = molecular target: Signal transducer and activator of transcription 3 (Homo sapiens) (UniProt P40763); assay: Inhibition of IL-6 induced STAT3 phosphorylation at tyrosine 705 residue in serum-starved human MDA-MB-231 cells at 30 to 100 uM after 20 mins by Western blot analysis; type: cell-based
[4] = molecular target: Signal transducer and activator of transcription 3 (Homo sapiens) (UniProt P40763); assay: Inhibition of IL-6 induced STAT3 phosphorylation at tyrosine 705 residue in serum-starved human HeLa cells at 10 to 30 uM after 20 mins by Western blot analysis; type: cell-based
MDA-MB-231 = assay: Cytostatic activity against human MDA-MB-231 cells assessed as cell viability after 24 hrs by trypan blue assay; type: functional, cell-based
[5] = molecular target: Signal transducer and activator of transcription 3 (Homo sapiens) (UniProt P40763); assay: Inhibition of STAT3 in IL-6-stimulated human MDA-MB-231 cells assessed as reduction in cell viability up to 125 uM after 24 hrs by MTS assay; type: cell-based

Activity [1]: Active
Activity [2]: 15 µM
Activity [3]: Active
Activity [4]: Active
Compound: Cc1ccc(-c2sc(C(=O)NCc3cccs3)cc2S(=O)(=O)N2CCCC2)cc1
Activity (MDA-MB-231): inactive
inhibition [5]: 40%
